From US20110173718A1, “HERBICIDE TOLERANT PLANTS” (SYNGENTA CROP PROTECTION, INC., priority 2008, published 2011)

System: weeds
Experiment: Glasshouse weed control by HST/HPPD (mesotrione) mixtures, post-emergence
Format: in vivo
Conditions: post-emergence; for % damage, 1 g ai ha^−1 mesotrione / % damage, no-mesotrione: 14 DAT; for colby: difference to Colby expectation
Experimental: Weed seeds are planted out in trays containing suitable soil (for example 50% peat, 50% John Innes soil no 3) and grown in the glass house conditions under 24-27° C. day; 18-21° C. night and approximately a 14 h (or longer in UK summer) photoperiod. Humidity is ˜65% and light levels up to 2000 μmol/m^2 at bench level. Trays are sprayed with test chemicals dissolved in water with 0.2-0.25% X-77 surfactant and sprayed from a boom on a suitable track sprayer moving at about 2 mph in a suitable track sprayer (for example a DeVries spray chamber with the nozzle about 2 inches from the plant tops). Spray volume is suitably 500-1000 l/ha. Sprays are carried out both pre-emergence and over small plants at about 7-12 d post-emergence
Plants are assessed 14 DAT and herbicidal damage is scored on a scale from 0 to 100%. The HST inhibitor compound 2.30 (designated compound A in table 16 and 17), haloxydine (compound 1.1) and compound 2.13 (designated compound AE in tables 16 and 17) are sprayed at rates between 0 and 500 g/ha.

[1] = ALOMY, 16 g/ha + 1 g ai/ha mesotrione
[2] = ALOMY, 31 g/ha + 1 g ai/ha mesotrione
[3] = ALOMY, 63 g/ha + 1 g ai/ha mesotrione
[4] = ALOMY, 125 g/ha + 1 g ai/ha mesotrione
[5] = ALOMY, 250 g/ha + 1 g ai/ha mesotrione
[6] = ALOMY, 500 g/ha + 1 g ai/ha mesotrione
[7] = ECHCG, 16 g/ha + 1 g ai/ha mesotrione
[8] = ECHCG, 31 g/ha + 1 g ai/ha mesotrione
[9] = ECHCG, 63 g/ha + 1 g ai/ha mesotrione
[10] = ECHCG, 125 g/ha + 1 g ai/ha mesotrione
[11] = ECHCG, 250 g/ha + 1 g ai/ha mesotrione
[12] = ECHCG, 500 g/ha + 1 g ai/ha mesotrione
[13] = SETFA, 16 g/ha + 1 g ai/ha mesotrione
[14] = SETFA, 31 g/ha + 1 g ai/ha mesotrione
[15] = SETFA, 63 g/ha + 1 g ai/ha mesotrione
[16] = SETFA, 125 g/ha + 1 g ai/ha mesotrione
[17] = SETFA, 250 g/ha + 1 g ai/ha mesotrione
[18] = SETFA, 500 g/ha + 1 g ai/ha mesotrione

Question: How did the “% damage, 1 g ai ha^−1 mesotrione” value [1] turn out when `O=c1c(Cl)c(F)[nH]c(F)c1Cl` [Haloxidine] was run?
Answer: Its value is 23%.

Question: What about the colby [1] of the same compound?
Answer: Its colby is 10.

Question: What about the “% damage, no-mesotrione” value (ALOMY, 16 g/ha) of the same compound?
Answer: The value was 13%.

Question: And the “% damage, 1 g ai ha^−1 mesotrione” value [2]?
Answer: The value was 33%.

Question: And the colby [2]?
Answer: The colby was 7.

Question: And the “% damage, no-mesotrione” value (ALOMY, 31 g/ha)?
Answer: Its value is 27%.

Question: What about the “% damage, 1 g ai ha^−1 mesotrione” value [3] of the same compound?
Answer: The value was 68%.

Question: And the colby [3]?
Answer: Its colby is 15.

Question: What about the “% damage, no-mesotrione” value (ALOMY, 63 g/ha) of the same compound?
Answer: The value was 53%.

Question: What about the “% damage, 1 g ai ha^−1 mesotrione” value [4] of the same compound?
Answer: Its value is 83%.

Question: What about the colby [4] of the same compound?
Answer: Its colby is 5.

Question: And the “% damage, no-mesotrione” value (ALOMY, 125 g/ha)?
Answer: The value was 78%.

Question: And the “% damage, 1 g ai ha^−1 mesotrione” value [5]?
Answer: Its value is 92%.

Question: What about the colby [5] of the same compound?
Answer: The colby was 2.

Question: And the “% damage, no-mesotrione” value (ALOMY, 250 g/ha)?
Answer: Its value is 90%.

Question: And the “% damage, 1 g ai ha^−1 mesotrione” value [6]?
Answer: Its value is 95%.

Question: What about the colby [6] of the same compound?
Answer: Its colby is 0.

Question: What about the “% damage, no-mesotrione” value (ALOMY, 500 g/ha) of the same compound?
Answer: The value was 95%.

Question: What about the “% damage, 1 g ai ha^−1 mesotrione” value [7] of the same compound?
Answer: Its value is 57%.

Question: And the colby [7]?
Answer: Its colby is 18.

Question: What about the “% damage, no-mesotrione” value (ECHCG, 16 g/ha) of the same compound?
Answer: Its value is 33%.

Question: And the “% damage, 1 g ai ha^−1 mesotrione” value [8]?
Answer: Its value is 67%.

Question: What about the colby [8] of the same compound?
Answer: Its colby is 11.

Question: And the “% damage, no-mesotrione” value (ECHCG, 31 g/ha)?
Answer: Its value is 52%.

Question: And the “% damage, 1 g ai ha^−1 mesotrione” value [9]?
Answer: Its value is 75%.

Question: And the colby [9]?
Answer: Its colby is 15.

Question: And the “% damage, no-mesotrione” value (ECHCG, 63 g/ha)?
Answer: Its value is 57%.

Question: And the “% damage, 1 g ai ha^−1 mesotrione” value [10]?
Answer: The value was 78%.

Question: What about the colby [10] of the same compound?
Answer: Its colby is 6.

Question: And the “% damage, no-mesotrione” value (ECHCG, 125 g/ha)?
Answer: The value was 70%.

Question: What about the “% damage, 1 g ai ha^−1 mesotrione” value [11] of the same compound?
Answer: The value was 97%.

Question: And the colby [11]?
Answer: Its colby is 12.

Question: What about the “% damage, no-mesotrione” value (ECHCG, 250 g/ha) of the same compound?
Answer: Its value is 83%.

Question: What about the “% damage, 1 g ai ha^−1 mesotrione” value [12] of the same compound?
Answer: Its value is 100%.

Question: What about the colby [12] of the same compound?
Answer: Its colby is 2.

Question: What about the “% damage, no-mesotrione” value (ECHCG, 500 g/ha) of the same compound?
Answer: Its value is 98%.

Question: What about the “% damage, 1 g ai ha^−1 mesotrione” value [13] of the same compound?
Answer: Its value is 27%.

Question: What about the colby [13] of the same compound?
Answer: The colby was −15.

Question: And the “% damage, no-mesotrione” value (SETFA, 16 g/ha)?
Answer: Its value is 42%.

Question: And the “% damage, 1 g ai ha^−1 mesotrione” value [14]?
Answer: The value was 82%.

Question: And the colby [14]?
Answer: The colby was 13.

Question: And the “% damage, no-mesotrione” value (SETFA, 31 g/ha)?
Answer: Its value is 68%.

Question: What about the “% damage, 1 g ai ha^−1 mesotrione” value [15] of the same compound?
Answer: The value was 92%.

Question: What about the colby [15] of the same compound?
Answer: Its colby is 12.

Question: And the “% damage, no-mesotrione” value (SETFA, 63 g/ha)?
Answer: Its value is 80%.

Question: What about the “% damage, 1 g ai ha^−1 mesotrione” value [16] of the same compound?
Answer: Its value is 97%.

Question: And the colby [16]?
Answer: The colby was 3.

Question: And the “% damage, no-mesotrione” value (SETFA, 125 g/ha)?
Answer: Its value is 93%.

Question: What about the “% damage, 1 g ai ha^−1 mesotrione” value [17] of the same compound?
Answer: The value was 100%.

Question: What about the colby [17] of the same compound?
Answer: The colby was 0.

Question: What about the “% damage, no-mesotrione” value (SETFA, 250 g/ha) of the same compound?
Answer: The value was 100%.

Question: And the “% damage, 1 g ai ha^−1 mesotrione” value [18]?
Answer: The value was 100%.

Question: And the colby [18]?
Answer: The colby was 0.

Question: And the “% damage, no-mesotrione” value (SETFA, 500 g/ha)?
Answer: Its value is 100%.

Question: Which “% damage, 1 g ai ha^−1 mesotrione” value [1] does the source give for `O=c1c(-c2c(F)ccc(F)c2Cl)c(O)c2cccnc2n1CC(F)F` [Compound 2.13] here?
Answer: Its value is 0%.

Question: What about the colby [1] of the same compound?
Answer: The colby was 0.

Question: What about the “% damage, no-mesotrione” value (ALOMY, 16 g/ha) of the same compound?
Answer: The value was 0%.

Question: And the “% damage, 1 g ai ha^−1 mesotrione” value [2]?
Answer: Its value is 2%.

Question: And the colby [2]?
Answer: The colby was 2.

Question: What about the “% damage, no-mesotrione” value (ALOMY, 31 g/ha) of the same compound?
Answer: Its value is 0%.

Question: And the “% damage, 1 g ai ha^−1 mesotrione” value [3]?
Answer: The value was 3%.

Question: And the colby [3]?
Answer: Its colby is 3.

Question: And the “% damage, no-mesotrione” value (ALOMY, 63 g/ha)?
Answer: Its value is 0%.

Question: And the “% damage, 1 g ai ha^−1 mesotrione” value [4]?
Answer: The value was 0%.

Question: What about the colby [4] of the same compound?
Answer: The colby was 0.

Question: What about the “% damage, no-mesotrione” value (ALOMY, 125 g/ha) of the same compound?
Answer: Its value is 0%.

Question: What about the “% damage, 1 g ai ha^−1 mesotrione” value [5] of the same compound?
Answer: Its value is 3%.

Question: What about the colby [5] of the same compound?
Answer: The colby was 2.

Question: And the “% damage, no-mesotrione” value (ALOMY, 250 g/ha)?
Answer: The value was 2%.

Question: And the “% damage, 1 g ai ha^−1 mesotrione” value [6]?
Answer: Its value is 5%.

Question: And the colby [6]?
Answer: The colby was −2.

Question: What about the “% damage, no-mesotrione” value (ALOMY, 500 g/ha) of the same compound?
Answer: The value was 7%.

Question: And the “% damage, 1 g ai ha^−1 mesotrione” value [7]?
Answer: The value was 5%.

Question: And the colby [7]?
Answer: The colby was −3.

Question: What about the “% damage, no-mesotrione” value (ECHCG, 16 g/ha) of the same compound?
Answer: Its value is 0%.

Question: And the “% damage, 1 g ai ha^−1 mesotrione” value [8]?
Answer: The value was 5%.

Question: What about the colby [8] of the same compound?
Answer: Its colby is −3.

Question: What about the “% damage, no-mesotrione” value (ECHCG, 31 g/ha) of the same compound?
Answer: Its value is 0%.

Question: And the “% damage, 1 g ai ha^−1 mesotrione” value [9]?
Answer: The value was 8%.

Question: And the colby [9]?
Answer: Its colby is 0.

Question: What about the “% damage, no-mesotrione” value (ECHCG, 63 g/ha) of the same compound?
Answer: The value was 0%.

Question: And the “% damage, 1 g ai ha^−1 mesotrione” value [10]?
Answer: Its value is 15%.

Question: And the colby [10]?
Answer: Its colby is 7.

Question: And the “% damage, no-mesotrione” value (ECHCG, 125 g/ha)?
Answer: The value was 0%.

Question: And the “% damage, 1 g ai ha^−1 mesotrione” value [11]?
Answer: Its value is 22%.

Question: What about the colby [11] of the same compound?
Answer: The colby was 13.

Question: And the “% damage, no-mesotrione” value (ECHCG, 250 g/ha)?
Answer: Its value is 0%.

Question: And the “% damage, 1 g ai ha^−1 mesotrione” value [12]?
Answer: Its value is 20%.

Question: What about the colby [12] of the same compound?
Answer: The colby was 12.

Question: And the “% damage, no-mesotrione” value (ECHCG, 500 g/ha)?
Answer: The value was 0%.

Question: And the “% damage, 1 g ai ha^−1 mesotrione” value [13]?
Answer: Its value is 0%.

Question: And the colby [13]?
Answer: The colby was 0.

Question: What about the “% damage, no-mesotrione” value (SETFA, 16 g/ha) of the same compound?
Answer: The value was 0%.

Question: And the “% damage, 1 g ai ha^−1 mesotrione” value [14]?
Answer: The value was 0%.

Question: What about the colby [14] of the same compound?
Answer: The colby was 0.

Question: And the “% damage, no-mesotrione” value (SETFA, 31 g/ha)?
Answer: Its value is 0%.

Question: What about the “% damage, 1 g ai ha^−1 mesotrione” value [15] of the same compound?
Answer: Its value is 0%.

Question: And the colby [15]?
Answer: Its colby is 0.

Question: What about the “% damage, no-mesotrione” value (SETFA, 63 g/ha) of the same compound?
Answer: The value was 0%.

Question: And the “% damage, 1 g ai ha^−1 mesotrione” value [16]?
Answer: The value was 0%.

Question: And the colby [16]?
Answer: The colby was 0.

Question: And the “% damage, no-mesotrione” value (SETFA, 125 g/ha)?
Answer: Its value is 0%.

Question: What about the “% damage, 1 g ai ha^−1 mesotrione” value [17] of the same compound?
Answer: The value was 0%.

Question: And the colby [17]?
Answer: The colby was 0.

Question: And the “% damage, no-mesotrione” value (SETFA, 250 g/ha)?
Answer: The value was 0%.

Question: What about the “% damage, 1 g ai ha^−1 mesotrione” value [18] of the same compound?
Answer: Its value is 0%.

Question: And the colby [18]?
Answer: Its colby is 0.

Question: And the “% damage, no-mesotrione” value (SETFA, 500 g/ha)?
Answer: Its value is 0%.
